# Measurements: patent US6914045B2, “Glycopeptide antibiotics” (Wyeth Holdings Corporation, priority 2001, dated 2005)
# Experiments:
# Assay in all cases: in vitro antibacterial evaluation, MIC by broth dilution
# Format in all cases: cell-based
# Escherichia coli = conditions: 18 hours at 35° C.
# Streptococcus sp. = conditions: broth dilution, 18 hours at 35° C.
# Procedure, shortened: (§1)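 Following National Committee for Clinical Laboratory Standards recommendations (M7-A2), susceptibility was measured by dilution in Muller-Hinton II […]. Bacteria were seeded at 5×10^5 CFU/mL against compound concentrations from 64 down to 0.06 μg/mL.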
# Staphylococcus sp. = conditions: broth dilution, 18 hours at 35° C.
# Procedure, shortened: as §1
# Enterococcus sp. = conditions: broth dilution, 18 hours at 35° C.
# Procedure, shortened: as §1
structure (smiles),measurement,setting,value
CC(c1ccccc1)C1NC(=O)CNC(=O)C(CO)NC(=O)C(C(O)C2CNC(=N)N2C2OC(CO)C(O)C(O)C2O)NC(=O)C(C(O)C2CNC(=N)N2)NC(=O)C(Cc2ccc(OC3OC(CO)C(OC4OC5COC6(OC5C(O)C4O)C4CCCC6CCC4)C(O)C3O)cc2)NC1=O (stereo not shown) [Example 212],MIC Escherichia coli (ATCC 25922),Escherichia coli,32 µg/mL
same,MIC Escherichia coli (GC 4559),Escherichia coli,32 µg/mL
same,MIC Escherichia coli (GC 4560),Escherichia coli,2 µg/mL
same,MIC Streptococcus agalactiae (GC 4564),Streptococcus sp.,1 µg/mL
same,MIC Streptococcus pneumoniae (ATCC 6301),Streptococcus sp.,0.5 µg/mL
same,MIC Streptococcus pneumoniae (GC 1894),Streptococcus sp.,<0.06 µg/mL
same,MIC Streptococcus pneumoniae (GC 4565),Streptococcus sp.,0.25 µg/mL
same,MIC Streptococcus pyogenes (GC 4563),Streptococcus sp.,1 µg/mL
same,MIC Streptococcus pneumoniae (ATCC 6301),"Streptococcus sp.; inoculum 5×10^5 CFU/mL, strain ATCC 6301",0.5 µg/mL
same,MIC Streptococcus pneumoniae (GC 1894),"Streptococcus sp.; inoculum 5×10^5 CFU/mL, strain GC 1894",<0.06 µg/mL
same,MIC Streptococcus pyogenes (GC 4563),"Streptococcus sp.; inoculum 5×10^5 CFU/mL, strain GC 4563",1 µg/mL
same,MIC Streptococcus agalactiae (GC 4564),"Streptococcus sp.; inoculum 5×10^5 CFU/mL, strain GC 4564",1 µg/mL
same,MIC Streptococcus pneumoniae (GC 4565),"Streptococcus sp.; inoculum 5×10^5 CFU/mL, strain GC 4565",0.25 µg/mL
same,MIC Staphylococcus aureus (ATCC 29213),Staphylococcus sp.; strain ATCC 29213,2 µg/mL
same,MIC Staphylococcus aureus (GC 1131),Staphylococcus sp.; strain GC 1131,4 µg/mL
same,MIC Staphylococcus aureus (GC 3051),Staphylococcus sp.; strain GC 3051,2 µg/mL
same,MIC Staphylococcus aureus (GC 3053),Staphylococcus sp.; strain GC 3053,4 µg/mL
same,MIC Staphylococcus aureus (GC 4541),Staphylococcus sp.; strain GC 4541,2 µg/mL
same,MIC Staphylococcus aureus (GC 4542),Staphylococcus sp.; strain GC 4542,2 µg/mL
same,MIC Staphylococcus aureus-SMITH (GC 4543),Staphylococcus sp.; strain GC 4543,2 µg/mL
same,MIC Staphylococcus aureus (GC 4544),Staphylococcus sp.; strain GC 4544,4 µg/mL
same,MIC Staphylococcus aureus (GC 4545),Staphylococcus sp.; strain GC 4545,2 µg/mL
same,MIC Staphylococcus haemolyticus (GC 4546),Staphylococcus sp.; strain GC 4546,2 µg/mL
same,MIC Coagulase Negative Staphylococcus (GC 4547),Staphylococcus sp.; strain GC 4547,2 µg/mL
same,MIC Coagulase Negative Staphylococcus (GC 4548),Staphylococcus sp.; strain GC 4548,2 µg/mL
same,MIC Coagulase Negative Staphylococcus (GC 4549),Staphylococcus sp.; strain GC 4549,2 µg/mL
same,MIC Coagulase Negative Staphylococcus (GC 4551),Staphylococcus sp.; strain GC 4551,2 µg/mL
same,MIC Coagulase Negative Staphylococcus (GC 6257),Staphylococcus sp.; strain GC 6257,1 µg/mL
same,MIC Enterococcus avium (GC 4558),Enterococcus sp.,4 µg/mL
same,MIC Enterococcus faecalis (ATCC 29212),Enterococcus sp.,8 µg/mL
same,MIC Enterococcus faecalis (GC 2242),Enterococcus sp.,8 µg/mL
same,MIC Enterococcus faecalis (GC 2691),Enterococcus sp.,8 µg/mL
same,MIC Enterococcus faecalis (GC 3059),Enterococcus sp.,8 µg/mL
same,MIC Enterococcus faecalis (GC 4552),Enterococcus sp.,8 µg/mL
same,MIC Enterococcus faecalis (GC 4553),Enterococcus sp.,8 µg/mL
same,MIC Enterococcus faecalis (GC 4554),Enterococcus sp.,8 µg/mL
same,MIC Enterococcus faecalis (GC 6189),Enterococcus sp.,8 µg/mL
same,MIC Enterococcus faecium (GC 2243),Enterococcus sp.,8 µg/mL
same,MIC Enterococcus faecium (GC 4556),Enterococcus sp.,8 µg/mL
same,MIC Enterococcus faecium (GC 4557),Enterococcus sp.,4 µg/mL
same,MIC Enterococcus faecalis (ATCC 29212),"Enterococcus sp.; inoculum 5×10^5 CFU/mL, strain ATCC 29212",8 µg/mL
same,MIC Enterococcus faecalis (GC 2242),"Enterococcus sp.; inoculum 5×10^5 CFU/mL, strain GC 2242",8 µg/mL
same,MIC Enterococcus faecium (GC 2243),"Enterococcus sp.; inoculum 5×10^5 CFU/mL, strain GC 2243",8 µg/mL
same,MIC Enterococcus faecalis (GC 2691),"Enterococcus sp.; inoculum 5×10^5 CFU/mL, strain GC 2691",8 µg/mL
same,MIC Enterococcus faecalis (GC 3059),"Enterococcus sp.; inoculum 5×10^5 CFU/mL, strain GC 3059",8 µg/mL
same,MIC Enterococcus faecalis (GC 4552),"Enterococcus sp.; inoculum 5×10^5 CFU/mL, strain GC 4552",8 µg/mL
same,MIC Enterococcus faecalis (GC 4553),"Enterococcus sp.; inoculum 5×10^5 CFU/mL, strain GC 4553",8 µg/mL
same,MIC Enterococcus faecalis (GC 4554),"Enterococcus sp.; inoculum 5×10^5 CFU/mL, strain GC 4554",8 µg/mL
same,MIC Enterococcus faecium (GC 4556),"Enterococcus sp.; inoculum 5×10^5 CFU/mL, strain GC 4556",8 µg/mL
same,MIC Enterococcus faecium (GC 4557),"Enterococcus sp.; inoculum 5×10^5 CFU/mL, strain GC 4557",4 µg/mL
same,MIC Enterococcus avium (GC 4558),"Enterococcus sp.; inoculum 5×10^5 CFU/mL, strain GC 4558",4 µg/mL
same,MIC Enterococcus faecalis (GC 6189),"Enterococcus sp.; inoculum 5×10^5 CFU/mL, strain GC 6189",8 µg/mL
